In patent publication US7858786B2, “Pyrimidines and pyrazines useful as modulators of ion channels” (Vertex Pharmaceuticals Incoropated, priority 2005, dated 2010):

Biological target: NaV1.8 (Homo sapiens, UniProt Q9Y5Y9)
Assay: Activity against NaV 1.8 channel (NaV inhibition assay)
Type: cell-based
Description: Compounds of the invention are useful as antagonists of voltage-gated sodium ion channels. Antagonist properties of test compounds were assessed as follows. Cells expressing the NaV of interest were placed into microtiter plates. After an incubation period, the cells were stained with fluorescent dyes sensitive to the transmembrane potential. The test compounds were added to the microtiter plate. The cells were stimulated with either a chemical or electrical means to evoke a NaV dependent membrane potential change from unblocked channels, which was detected and measured with trans-membrane potential-sensitive dyes. Antagonists were detected as a decreased membrane potential response to the stimulus. The optical membrane potential assay utilized voltage-sensitive FRET sensors described by Gonzalez and Tsien (See, Gonzalez, J. E. and R. Y. Tsien (1995) “Voltage sensing by fluorescence resonance energy transfer in single cells” Biophys J 69(4):1272-80, and Gonzalez, J. E. and R. Y. Tsien (1997) “Improved indicators of cell membrane potential that use fluorescence resonance energy transfer” Chem Biol 4(4):269-77) in combination with instrumentation for measuring fluorescence changes such as the Voltage/Ion Probe Reader (VIPRO®) (See, Gonzalez, J. E., K. Oades, et al. (1999) “Cell-based assays and instrumentation for screening ion-channel targets” Drug Discov Today 4(9):431-439).
24 hours before the assay on VIPR, CHO cells endogenously expressing a NaV1.2 type voltage-gated NaV are seeded in 96-well poly-lysine coated plates at 60,000 cells per well. Other subtypes are performed in an analogous mode in a cell line expressing the NaV of interest.
The following is an example of how NaV1.3 inhibition activity is measured using the optical membrane potential method #2. Other subtypes are performed in an analogous mode in a cell line expressing the NaV of interest.
HEK293 cells stably expressing NaV1.3 are plated into 96-well microtiter plates. After an appropriate incubation period, the cells are stained with the voltage sensitive dyes CC2-DMPE/DiSBAC2(3) as follows.
Patch clamp electrophysiology was used to assess the efficacy and selectivity of sodium channel blockers in dorsal root ganglion neurons. Rat neurons were isolated from the dorsal root ganglions and maintained in culture for 2 to 10 days in the presence of NGF (50 ng/ml) (culture media consisted of NeurobasalA supplemented with B27, glutamine and antibiotics). Small diameter neurons (nociceptors, 8-12 μm in diameter) have been visually identified and probed with fine tip glass electrodes connected to an amplifier (Axon Instruments). The “voltage clamp” mode has been used to assess the compound's IC50 holding the cells at −60 mV. In addition, the “current clamp” mode has been employed to test the efficacy of the compounds in blocking action potential generation in response to current injections. The results of these experiments have contributed to the definition of the efficacy profile of the compounds.
TTX-resistant sodium currents were recorded from DRG somata using the whole-cell variation of the patch clamp technique. Recordings were made at room temperature (˜22° C.) with thick walled borosilicate glass electrodes (WPI; resistance 3-4 MΩ) using an Axopatch 200B amplifier (Axon Instruments). After establishing the whole-cell configuration, approximately 15 minutes were allowed for the pipette solution to equilibrate within the cell before beginning recording. Currents were lowpass filtered between 2-5 kHz and digitally sampled at 10 kHz. Series resistance was compensated 60-70% and was monitored continuously throughout the experiment. The liquid junction potential (−7 mV) between the intracellular pipette solution and the external recording solution was not accounted for in the data analysis. Test solutions were applied to the cells with a gravity driven fast perfusion system (SF-77; Warner Instruments). […]

IC50 [µM]	SMILES
> 15	CC(C)C(=O)N[C@@H]1CCN(c2cncc(-c3ccccc3F)n2)C1 [Compound 7, N-[1-[6-(2-fluorophenyl)pyrazin-2-yl]pyrrolidin-3-yl]-2-methyl-propanamide]
10 to 15	CC(C)COC(=O)N1CCN(c2cc(-c3ccccc3O)ncn2)CC1 [Compound 20, 4-[6-(2-hydroxyphenyl)pyrimidin-4-yl]piperazine-1-carboxylic acid isobutyl ester]
10 to 15	CC(C)(C)OC(=O)N[C@@H]1CCN(c2cncc(-c3ccccc3F)n2)C1 [Compound 8, [1-[6-(2-fluorophenyl)pyrazin-2-yl]pyrrolidin-3-yl]aminoformic acid tert-butyl ester]
< 10	CC(C)COC(=O)NC1CCN(c2cncc(-c3ccccc3F)n2)CC1 [Compound 45, [1-[6-(2-fluorophenyl)pyrazin-2-yl]-4-piperidyl]aminoformic acid isobutyl ester]
< 10	CC(C)COC(=O)NC1CCN(c2cncc(-c3ccccc3C(F)F)n2)CC1 [Compound 48, [1-[6-[2-(difluoromethyl)phenyl]pyrazin-2-yl]-4-piperidyl]aminoformic acid isobutyl ester]
10 to 15	CC(C)(C)OC(=O)N[C@@H]1CCN(c2cncc(-c3ccccc3C(F)F)n2)C1 [Compound 43, [1-[6-[2-(difluoromethyl)phenyl]pyrazin-2-yl]pyrrolidin-3-yl]aminoformic acid tert-butyl ester]
10 to 15	CC(C)COC(=O)N1CCN(c2nccc(-c3ccccc3C(F)F)n2)CC1 [Compound 24, 4-[4-[2-(difluoromethyl)phenyl]pyrimidin-2-yl]piperazine-1-carboxylic acid isobutyl ester]
> 15	CC(C)C[C@@H](O)C(=O)N1CCN(c2ccnc(-c3ccccc3F)n2)CC1 [Compound 42, 1-[4-[2-(2-fluorophenyl)pyrimidin-4-yl]piperazin-1-yl]-2-hydroxy-4-methyl-pentan-1-one]
> 15	CC(C)OC(=O)N[C@@H]1CCN(c2cncc(-c3ccccc3F)n2)C1 [Compound 22, [1-[6-(2-fluorophenyl)pyrazin-2-yl]pyrrolidin-3-yl]aminoformic acid isopropyl ester]
> 15	CC(C)COC(=O)N1CCN(c2cc(-c3ccccc3C(F)F)ncn2)CC1 [Compound 4, 4-[6-[2-(difluoromethyl)phenyl]pyrimidin-4-yl]piperazine-1-carboxylic acid isobutyl ester]
< 10	CC(C)COC(=O)N1CCN(c2nccc(-c3ccccc3O)n2)CC1 [Compound 25, 4-[4-(2-hydroxyphenyl)pyrimidin-2-yl]piperazine-1-carboxylic acid isobutyl ester]
10 to 15	CC(C)C[C@@H](O)C(=O)N1CCN(c2ccnc(-c3ccccc3O)n2)CC1 [Compound 12, 2-hydroxy-1-[4-[2-(2-hydroxyphenyl)pyrimidin-4-yl]piperazin-1-yl]-4-methyl-pentan-1-one]
< 10	CC(C)(C)OC(=O)NC1CCN(c2cncc(-c3ccccc3F)n2)CC1 [Compound 3, [1-[6-(2-fluorophenyl)pyrazin-2-yl]-4-piperidyl]aminoformic acid tert-butyl ester]
> 15	CC(C)C(=O)N[C@@H]1CCN(c2cncc(-c3ccccc3O)n2)C1 [Compound 14, N-[1-[6-(2-hydroxyphenyl)pyrazin-2-yl]pyrrolidin-3-yl]-2-methyl-propanamide]
< 10	CC(C)C[C@@H](O)C(=O)N1CCN(c2nccc(-c3ccccc3O)n2)CC1 [Compound 39, 2-hydroxy-1-[4-[4-(2-hydroxyphenyl)pyrimidin-2-yl]piperazin-1-yl]-4-methyl-pentan-1-one]
10 to 15	CC(C)C[C@@H](O)C(=O)N1CCN(c2nccc(-c3ccccc3C(F)F)n2)CC1 [Compound 6, 1-[4-[4-[2-(difluoromethyl)phenyl]pyrimidin-2-yl]piperazin-1-yl]-2-hydroxy-4-methyl-pentan-1-one]
> 15	CC(C)(C)OC(=O)N[C@@H]1CCN(c2cncc(-c3ccccc3O)n2)C1 [Compound 40, [1-[6-(2-hydroxyphenyl)pyrazin-2-yl]pyrrolidin-3-yl]aminoformic acid tert-butyl ester]
< 10	COCCOC(=O)NC1CCN(c2cncc(-c3ccccc3F)n2)CC1 [Compound 9, [1-[6-(2-fluorophenyl)pyrazin-2-yl]-4-piperidyl]aminoformic acid 2-methoxyethyl ester]
> 15	CC(C)COC(=O)NC1CCN(c2nccc(-c3ccccc3O)n2)CC1 [Compound 1, [1-[4-(2-hydroxyphenyl)pyrimidin-2-yl]-4-piperidyl]aminoformic acid isobutyl ester]
> 15	COCCOC(=O)N[C@@H]1CCN(c2cncc(-c3ccccc3F)n2)C1 [Compound 27, [1-[6-(2-fluorophenyl)pyrazin-2-yl]pyrrolidin-3-yl]aminoformic acid 2-methoxyethyl ester]
> 15	CC(C)C[C@@H](O)C(=O)N1CCN(c2ccnc(-c3ccccc3C(F)F)n2)CC1 [Compound 21, 1-[4-[2-[2-(difluoromethyl)phenyl]pyrimidin-4-yl]piperazin-1-yl]-2-hydroxy-4-methyl-pentan-1-one]
> 15	O=C(NC1CCN(c2ccnc(-c3ccccc3O)n2)CC1)[C@H]1CCCO1 [Compound 29, N-[1-[2-(2-hydroxyphenyl)pyrimidin-4-yl]-4-piperidyl]tetrahydrofuran-2-carboxamide]
> 15	CC(C)COC(=O)N1CCN(c2ccnc(-c3ccccc3C(F)F)n2)CC1 [Compound 32, 4-[2-[2-(difluoromethyl)phenyl]pyrimidin-4-yl]piperazine-1-carboxylic acid isobutyl ester]
> 15	CC(C)C(=O)N[C@@H]1CCN(c2cncc(-c3ccccc3C(F)F)n2)C1 [Compound 28, N-[1-[6-[2-(difluoromethyl)phenyl]pyrazin-2-yl]pyrrolidin-3-yl]-2-methyl-propanamide]
< 10	COCCOC(=O)NC1CCN(c2cncc(-c3ccccc3C(F)F)n2)CC1 [Compound 19, [1-[6-[2-(difluoromethyl)phenyl]pyrazin-2-yl]-4-piperidyl]aminoformic acid 2-methoxyethyl ester]
< 10	CC(C)COC(=O)N1CCN(c2cncc(-c3ccccc3O)n2)CC1 [Compound 33, 4-[6-(2-hydroxyphenyl)pyrazin-2-yl]piperazine-1-carboxylic acid isobutyl ester]
> 15	O=C(NC1CCN(c2ccnc(-c3ccccc3F)n2)CC1)[C@H]1CCCO1 [Compound 2, N-[1-[2-(2-fluorophenyl)pyrimidin-4-yl]-4-piperidyl]tetrahydrofuran-2-carboxamide]
< 10	CC(C)COC(=O)NC1CCN(c2cncc(-c3ccccc3O)n2)CC1 [Compound 18, [1-[6-(2-hydroxyphenyl)pyrazin-2-yl]-4-piperidyl]aminoformic acid isobutyl ester]
> 15	CC(C)C[C@@H](O)C(=O)N1CCN(c2cc(-c3ccccc3C(F)F)ncn2)CC1 [Compound 49, 1-[4-[6-[2-(difluoromethyl)phenyl]pyrimidin-4-yl]piperazin-1-yl]-2-hydroxy-4-methyl-pentan-1-one]
